Data reported in EPA's ToxRefDB 2.

What was measured:
rat [1] = details: Multigenerational reproductive toxicity study, sprague dawley, Oral, Feed, dose end: 2 generation
rat [2] = details: Combined chronic toxicity/carcinogenicity, wistar, Oral, Feed, dose end: 24 month, group: systemic
rat [3] = details: Subchronic oral toxicity in rodents, wistar, Feed, dose end: 90 day, group: systemic
mouse [4] = details: Subchronic oral toxicity in rodents, b6c3f1, Feed, dose end: 14 week, group: systemic, systemic / clinical chemistry / bilirubin / total bilirubin + systemic / clinical chemistry / cholesterol / cholesterol + systemic / …
mouse [5] = details: Carcinogenicity; b6c3f1; Oral; Feed; dose end: 2 year; group: systemic; systemic / organ weight / kidney / nos + systemic / pathology microscopic / kidney / vacuolization + systemic / organ weight / kidney / …
dog [6] = details: Chronic toxicity; beagle; Oral; Feed; dose end: 52 week; group: systemic; systemic / hematology / erythrocyte (rbc) count differential / erythrocyte (rbc) + systemic / hematology / heinz body / heinz body + …
dog [7] = details: Subchronic oral toxicity in nonrodent, beagle, Feed, dose end: 90 day, group: systemic
rabbit = details: Prenatal developmental toxicity study, other, Oral, Gavage/Intubation, dose end: 18 GD
rat [8] = details: Prenatal developmental toxicity study; wistar; Oral; Feed; dose end: 15 GD; group: maternal; systemic / in life observation / body weight / body weight gain + systemic / in life observation / food consumption / food consumption
rat [9] = details: Prenatal developmental toxicity study, sprague dawley, Oral, Gavage/Intubation, dose end: 15 GD
rat [10] = details: Combined chronic toxicity/carcinogenicity; sprague dawley; Oral; Feed; dose end: 104 week; group: systemic; systemic / pathology microscopic / adrenal gland / hypertrophy + systemic / pathology microscopic / skeletal muscle / malformation + …
rat [11] = details: Multigenerational reproductive toxicity study, sprague dawley, Oral, Feed, dose end: 2 generation; remark: listed apart in the source
mouse [12] = details: Carcinogenicity, cd1, Oral, Feed, dose end: 80 week, group: systemic
rat [13] = details: Subchronic oral toxicity in rodents, sprague dawley, Feed, dose end: 13 week, group: systemic, systemic / in life observation / body weight / body weight + systemic / in life observation / body weight / body weight gain + systemic / in…
mouse [14] = details: Combined chronic toxicity/carcinogenicity; b6c3f1; Oral; Feed; dose end: 2 year; group: systemic; systemic / in life observation / body weight / body weight
rat [15] = details: Prenatal developmental toxicity study, sprague dawley, Oral, Gavage/Intubation, dose end: 15 GD; remark: listed apart in the source
rat [16] = details: Prenatal developmental toxicity study, sprague dawley, Oral, Gavage/Intubation, dose end: 5 GD, group: developmental
dog [17] = details: Chronic toxicity, beagle, Oral, [Not Specified], dose end: 52 week, group: systemic
rat [18] = details: Subchronic oral toxicity in rodents, fischer, Feed, dose end: 13 week, group: systemic
rat [19] = details: Combined chronic toxicity/carcinogenicity; fischer; Oral; Feed; dose end: 104 week; group: systemic; systemic / organ weight / skeletal muscle / absolute + systemic / organ weight / skeletal muscle / relative to body weight + systemic / …
rat [20] = details: Combined chronic toxicity/carcinogenicity, fischer, Oral, Feed, dose end: 2 year, group: systemic
mouse [21] = details: Subchronic oral toxicity in rodents, b6c3f1, Feed, dose end: 13 week, group: systemic
rat [22] = details: Subchronic dermal toxicity, fischer, Topical, dose end: 13 week, group: systemic
[23] = group: offspring, systemic / in life observation / body weight / offspring (pup) weight
[24] = group: offspring, systemic / in life observation / body weight / offspring (pup) weight + developmental / offspring survival late / [other] / [other]
[25] = group: parental, systemic / clinical chemistry / alkaline phosphatase (alp/alk) / alkaline phosphatase (alp/alk) + systemic / clinical chemistry / creatinine…
[26] = systemic / clinical chemistry / lactic acid dehydrogenase (ldh) / lactic acid dehydrogenase (ldh)
[27] = systemic / clinical chemistry / alanine aminotransferase (alt/sgpt) / alanine aminotransferase (alt/sgpt) + systemic / in life observation…
[28] = systemic / organ weight / liver / absolute + systemic / organ weight / liver / relative to body weight
[29] = systemic / hematology / heinz body / heinz body
[30] = systemic / hematology / heinz body / heinz body + systemic / clinical chemistry / alkaline phosphatase (alp/alk) / alkaline phosphatase (alp…
[31] = group: developmental, developmental / developmental malformation / bone / unossified + systemic / in life observation / body weight / fetal weight
[32] = group: maternal, systemic / in life observation / body weight / body weight gain + systemic / in life observation / clinical signs / scybala + systemic / in …
[33] = group: developmental, developmental / developmental malformation / bone / ossification sites + developmental / developmental malformation / general / [other] + …
[34] = group: maternal, systemic / in life observation / body weight / body weight gain
[35] = group: maternal, systemic / in life observation / body weight / body weight gain + reproductive / reproductive performance / postimplantation loss / …
[36] = group: parental, systemic / in life observation / body weight / body weight + systemic / in life observation / body weight / body weight gain + systemic / in…
[37] = systemic / in life observation / body weight / body weight + systemic / pathology microscopic / liver / hypertrophy
[38] = systemic / in life observation / body weight / body weight gain + systemic / organ weight / brain / absolute + systemic / pathology …
[39] = group: developmental, developmental / developmental malformation / diaphragm / diaphragmatic thinning
[40] = group: developmental, developmental / developmental malformation / diaphragm / diaphragmatic thinning + systemic / in life observation / body weight / fetal …
[41] = group: maternal, systemic / in life observation / body weight / body weight + systemic / in life observation / clinical signs / salivation + systemic / in …
[42] = developmental / developmental malformation / bone / ossification sites + developmental / developmental malformation / general / [other] + …
[43] = systemic / clinical chemistry / alanine aminotransferase (alt/sgpt) / alanine aminotransferase (alt/sgpt) + systemic / clinical chemistry / …
[44] = systemic / organ weight / ovary / absolute + systemic / organ weight / uterus / absolute
[45] = systemic / in life observation / body weight / body weight gain
[46] = systemic / in life observation / body weight / body weight gain + systemic / in life observation / mortality / mortality + systemic / in …
[47] = systemic / pathology microscopic / eye / retinopathy
[48] = systemic / pathology microscopic / thyroid gland / adenoma/carcinoma combined + systemic / pathology microscopic / thyroid gland / carcinoma…
[49] = systemic / pathology microscopic / skin / inflammation
[50] = systemic / pathology microscopic / skin / inflammation + systemic / in life observation / clinical signs / desquamation + systemic / in life…

For `CC1(C(=O)Nc2ccc(O)c(Cl)c2Cl)CCCCC1` [Fenhexamid], the LEL (rat [1]; [23]) was 406 mg/kg/day, the LOAEL (rat [1]; [23]) was 406 mg/kg/day and the NEL (rat [1]; [24]) was 38.2 mg/kg/day. It also gave an NOAEL (rat [1]; [24]) of 38.2 mg/kg/day, an LEL (rat [1]; [25]) of 406 mg/kg/day and an LOAEL (rat [1]; [25]) of 406 mg/kg/day. It also gave an NEL (rat [1]; [25]) of 38.2 mg/kg/day, an NOAEL (rat [1]; [25]) of 38.2 mg/kg/day and an LEL (rat [2]; [26]) of 28 mg/kg/day. For the same compound, the NEL (rat [2]; [26]) was < 28 mg/kg/day, the NOAEL (rat [2]; systemic / clinical chemistry / lactic acid dehydrogenase (ldh) / lactic acid dehydrogenase (ldh) + systemic / pathology microscopic / …) was 28 mg/kg/day and the LOAEL (rat [2]; systemic / pathology microscopic / intestine large / hyperplasia + systemic / pathology microscopic / spleen / hematopoietic cell …) was 292 mg/kg/day. It also gave an LOAEL (rat [3]; [27]) of 904 mg/kg/day, an NOAEL (rat [3]; [27]) of 415 mg/kg/day and an LEL (rat [3]; [28]) of 202 mg/kg/day. The NEL (rat [3]; [28]) was < 202 mg/kg/day, the LEL (mouse [4]) was 3280 mg/kg/day and the LOAEL (mouse [4]) was 3280 mg/kg/day. For the same compound, the NEL (mouse [4]) was 266 mg/kg/day, the NOAEL (mouse [4]) was 266 mg/kg/day and the LEL (mouse [5]) was 807 mg/kg/day. It also gave an LOAEL (mouse [5]) of 807 mg/kg/day, an NEL (mouse [5]) of 247 mg/kg/day and an NOAEL (mouse [5]) of 247 mg/kg/day. For the same compound, the LEL (dog [6]) was 124 mg/kg/day, the LOAEL (dog [6]) was 124 mg/kg/day and the NEL (dog [6]) was 17.4 mg/kg/day. The NOAEL (dog [6]) was 17.4 mg/kg/day, the LEL (dog [7]; [29]) was 239 mg/kg/day and the LOAEL (dog [7]; [29]) was 239 mg/kg/day. For the same compound, the NEL (dog [7]; [30]) was 33.9 mg/kg/day, the NOAEL (dog [7]; [30]) was 33.9 mg/kg/day and the LEL (rabbit; [31]) was 1000 mg/kg/day. The LOAEL (rabbit; [31]) was 1000 mg/kg/day, the NEL (rabbit; [31]) was 300 mg/kg/day and the NOAEL (rabbit; [31]) was 300 mg/kg/day. The LEL (rabbit; [32]) was 300 mg/kg/day, the LOAEL (rabbit; [32]) was 300 mg/kg/day and the NEL (rabbit; [32]) was 100 mg/kg/day. It also gave an NOAEL (rabbit; [32]) of 100 mg/kg/day.

For `CN(C)C(=S)[S-].CN(C)C(=S)[S-].[Zn+2]` [Ziram], the LEL (rat [8]) was 12.5 mg/kg/day, the LOAEL (rat [8]) was > 25 mg/kg/day and the NEL (rat [8]) was 6.25 mg/kg/day. The NOAEL (rat [8]) was ≥ 25 mg/kg/day, the LOAEL (rat [9]; [33]) was > 100 mg/kg/day and the NEL (rat [9]; [33]) was 12.5 mg/kg/day. The NOAEL (rat [9]; [33]) was ≥ 100 mg/kg/day, the LEL (rat [9]; group: developmental, systemic / in life observation / body weight / fetal weight) was 25 mg/kg/day and the LEL (rat [9]; [34]) was 12.5 mg/kg/day. The NEL (rat [9]; [34]) was < 12.5 mg/kg/day, the LOAEL (rat [9]; [35]) was > 100 mg/kg/day and the NOAEL (rat [9]; [35]) was ≥ 100 mg/kg/day. For the same compound, the LEL (rat [10]) was 2.5 mg/kg/day, the LOAEL (rat [10]) was 2.5 mg/kg/day and the NEL (rat [10]) was < 2.5 mg/kg/day. The NOAEL (rat [10]) was < 2.5 mg/kg/day, the LEL (rat [11]; [23]) was 42.7 mg/kg/day and the LOAEL (rat [11]; [23]) was 42.7 mg/kg/day. The NEL (rat [11]; [23]) was 16.7 mg/kg/day, the NOAEL (rat [11]; [23]) was 16.7 mg/kg/day and the LEL (rat [11]; [36]) was 37.5 mg/kg/day. It also gave an LOAEL (rat [11]; [36]) of 37.5 mg/kg/day, an NEL (rat [11]; [36]) of 14.8 mg/kg/day and an NOAEL (rat [11]; [36]) of 14.8 mg/kg/day. For the same compound, the LEL (mouse [12]; [37]) was 3 mg/kg/day, the NEL (mouse [12]; [37]) was < 3 mg/kg/day and the LOAEL (mouse [12]; [38]) was 27 mg/kg/day. It also gave an NOAEL (mouse [12]; [38]) of 9 mg/kg/day, an LEL (rat [13]) of 21.4 mg/kg/day and an LOAEL (rat [13]) of 21.4 mg/kg/day. The NEL (rat [13]) was 7.4 mg/kg/day, the NOAEL (rat [13]) was 7.4 mg/kg/day and the LEL (mouse [14]) was 122 mg/kg/day. For the same compound, the LOAEL (mouse [14]) was 122 mg/kg/day, the NEL (mouse [14]) was < 122 mg/kg/day and the NOAEL (mouse [14]) was < 122 mg/kg/day. It also gave an LEL (rat [15]; [39]) of 16 mg/kg/day, an LOAEL (rat [15]; [39]) of 16 mg/kg/day and an NEL (rat [15]; [40]) of 4 mg/kg/day. The NOAEL (rat [15]; [40]) was 4 mg/kg/day, the LEL (rat [15]; [41]) was 16 mg/kg/day and the LOAEL (rat [15]; [41]) was 16 mg/kg/day. The NEL (rat [15]; [41]) was 4 mg/kg/day, the NOAEL (rat [15]; [41]) was 4 mg/kg/day and the LOAEL (rat [16]; [42]) was > 100 mg/kg/day. The NEL (rat [16]; [42]) was 25 mg/kg/day, the NOAEL (rat [16]; [42]) was ≥ 100 mg/kg/day and the LEL (rat [16]; systemic / in life observation / body weight / fetal weight) was 50 mg/kg/day. The LOAEL (dog [17]; [43]) was 6.6 mg/kg/day, the NOAEL (dog [17]; [43]) was 1.6 mg/kg/day and the LEL (dog [17]; [44]) was 1.9 mg/kg/day. The NEL (dog [17]; [44]) was < 1.9 mg/kg/day, the LEL (rat [18]; [45]) was 31.3 mg/kg/day and the LOAEL (rat [18]; [46]) was > 313 mg/kg/day. For the same compound, the NEL (rat [18]; [46]) was 16.3 mg/kg/day, the NOAEL (rat [18]; [46]) was ≥ 313 mg/kg/day and the LEL (rat [19]) was 6.9 mg/kg/day. The LOAEL (rat [19]) was 6.9 mg/kg/day, the NEL (rat [19]) was 0.7 mg/kg/day and the NOAEL (rat [19]) was 0.7 mg/kg/day. The LEL (rat [20]; [47]) was 13 mg/kg/day, the NEL (rat [20]; [47]) was < 13 mg/kg/day and the LOAEL (rat [20]; [48]) was > 22 mg/kg/day. The NOAEL (rat [20]; [48]) was ≥ 22 mg/kg/day, the LEL (mouse [21]; [45]) was 80 mg/kg/day and the NEL (mouse [21]; [45]) was < 80 mg/kg/day. The LOAEL (mouse [21]; [46]) was > 1590 mg/kg/day and the NOAEL (mouse [21]; [46]) was ≥ 1590 mg/kg/day.

`CCCCCCCCCCSCCN.Cl` [2-(Decylthio)ethanamine hydrochloride] was tested, and the LOAEL (rat [22]; [49]) was 1 mg/kg/day, the NOAEL (rat [22]; [49]) was < 1 mg/kg/day and the LEL (rat [22]; [50]) was 1 mg/kg/day. The NEL (rat [22]; [50]) was < 1 mg/kg/day.
